pIC50: −log10 of the molar value. The source made the active and inactive calls. No cut-off for these calls is given here.
How the values were obtained:
[1] = Aqueous solubility of the compound in deionized water at 25 degreeC by HPLC analysis; type: physicochemical
[2] = Chemical stability of the compound assessed as compound remaining measured after 7 days by LC-MS analysis; type: physicochemical; details: time 7 day; read-out: Stability
[3] = Metabolic stability in human liver microsomes assessed as intrinsic clearance preincubated for 15 mins followed by NADPH addition and measured upto 45 mins by LC-MS/MS analysis; type: ADME, Microsome; details: time < 60 min, read-out: CLH
[4] = Metabolic stability in human liver microsomes assessed as half life preincubated for 15 mins followed by NADPH addition and measured upto 45 mins by LC-MS/MS analysis; type: ADME, Microsome; details: time < 60 min
[5] = molecular target: T1, GNAQ/GNA11 (Homo sapiens) (UniProt P50148+P29992); assay: Inhibition of Galphaq/11 (unknown origin) expressed in CHO-M1 cells at 10 uM preincubated for 1 hr followed by carbachol stimulation for 30 mins and measured after 1 hr by IP1 accumulation based HTRF assay relative to control; type: cell-based; details: time 150.0 min
[6] = Antiproliferative activity against human MP41 cells assessed as reduction in cell viability measured after 72 hrs by CCK-8 method; type: functional, cell-based; details: MP41, 72 h
[7] = Antiproliferative activity against human 921 cells assessed as reduction in cell viability measured after 72 hrs by CCK-8 method; type: functional, cell-based; details: Homo sapiens, 921, 72 h
HEK-293T [8] = assay: Cytotoxicity against HEK293T cells assessed as reduction in cell viability at upto 10 uM measured after 72 hrs by CCK-8 method; type: toxicity, cell-based; details: human
BEAS-2B [9] = assay: Cytotoxicity against human BEAS-2B cells assessed as reduction in cell viability at upto 10 uM measured after 72 hrs by CCK-8 method; type: toxicity, cell-based
A-375 = assay: Antiproliferative activity against human A-375 cells assessed as reduction in cell viability at 10 uM measured after 72 hrs by CCK-8 method; type: functional, cell-based
SK-MEL-2 = assay: Antiproliferative activity against human SK-MEL-2 cells assessed as reduction in cell viability at 10 uM measured after 72 hrs by CCK-8 method; type: functional, cell-based
MP41 [10] = assay: Antiproliferative activity against human MP41 cells assessed as reduction in cell viability at 10 uM measured after 72 hrs by CCK-8 method; type: functional, cell-based
921 [11] = assay: Antiproliferative activity against human 921 cells assessed as reduction in cell viability at 10 uM measured after 72 hrs by CCK-8 method; type: functional, cell-based
MP41 [12] = assay: Inhibition of colony formation in human MP41 cells assessed as inhibition of cell proliferation at 1 uM incubated for 14 days with replacement with fresh medium for every 3 days by crystal violet staining based analysis; type: functional; details: time 14.0 day
MP41 [13] = assay: Inhibition of cell migration in human MP41 cells at 1 uM incubated for 24 hrs by wound healing assay; type: functional, cell-based
HEK-293T [14] = assay: Cytotoxicity against HEK293T cells assessed as reduction in cell viability at 10 uM measured after 72 hrs by CCK-8 method; type: toxicity, cell-based; details: human
BEAS-2B [15] = assay: Cytotoxicity against human BEAS-2B cells assessed as reduction in cell viability at 10 uM measured after 72 hrs by CCK-8 method; type: toxicity, cell-based
[16] = molecular target: T2, Type-1 angiotensin II receptor (Homo sapiens, UniProt P30556); assay: (§1) Inhibition of human AT1R expressed in HEK293 cells using […] incubated for 1 hr followed by addition of angiotensinII and substrate by BRET assay; type: cell-based
T2 sequence (P30556 whole entry): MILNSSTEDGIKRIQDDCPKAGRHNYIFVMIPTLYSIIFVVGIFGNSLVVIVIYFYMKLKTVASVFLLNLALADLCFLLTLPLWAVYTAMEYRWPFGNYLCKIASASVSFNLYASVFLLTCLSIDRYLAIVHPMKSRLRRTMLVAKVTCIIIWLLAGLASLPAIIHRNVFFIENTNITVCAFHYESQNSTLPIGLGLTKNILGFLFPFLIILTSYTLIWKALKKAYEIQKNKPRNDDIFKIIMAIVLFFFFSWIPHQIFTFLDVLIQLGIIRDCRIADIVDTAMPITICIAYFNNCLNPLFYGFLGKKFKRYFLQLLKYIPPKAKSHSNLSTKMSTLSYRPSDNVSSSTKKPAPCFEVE

[17] = Inhibition of Galphaq (unknown origin) preincubated for 1 hr followed by carbachol stimulation for 30 mins and measured after 1 hr by IP1 accumulation based HTRF assay; design: species or system Homo sapiens
MP41 [18] = assay: Antiproliferative activity against human MP41 cells assessed as reduction in cell viability at 1.25 uM measured after 72 hrs by CCK-8 method; type: functional, cell-based
921 [19] = assay: Antiproliferative activity against human 921 cells assessed as reduction in cell viability at 1.25 uM measured after 72 hrs by CCK-8 method; type: functional, cell-based
MP41 [20] = assay: Inhibition of colony formation in human MP41 cells assessed as inhibition of cell proliferation incubated for 14 days with replacement with fresh medium for every 3 days by crystal violet staining based analysis; type: functional; details: dose 1-5 µM, time 14.0 day
MP41 [21] = assay: Inhibition of cell invasion in human MP41 cells measured after 48 hrs by crystal violet staining based Boyden chamber invasion assay; type: functional; details: dose 3-10 µM
MP41 [22] = assay: Inhibition of cell migration in human MP41 cells incubated for 24 hrs by wound healing assay; type: functional, cell-based; details: dose 3-10 µM
[23] = molecular target: T3, Mitogen-activated protein kinase; ERK1/ERK2 (Homo sapiens) (UniProt P27361+P28482); assay: Inhibition of ERK1/2 phosphorylation in human MP41 cells at 20 uM by Western blot analysis; type: cell-based; details: time <= 24.0 hrs, TDE = time-dependent effect
T3 sequence (P27361 whole entry, looked up): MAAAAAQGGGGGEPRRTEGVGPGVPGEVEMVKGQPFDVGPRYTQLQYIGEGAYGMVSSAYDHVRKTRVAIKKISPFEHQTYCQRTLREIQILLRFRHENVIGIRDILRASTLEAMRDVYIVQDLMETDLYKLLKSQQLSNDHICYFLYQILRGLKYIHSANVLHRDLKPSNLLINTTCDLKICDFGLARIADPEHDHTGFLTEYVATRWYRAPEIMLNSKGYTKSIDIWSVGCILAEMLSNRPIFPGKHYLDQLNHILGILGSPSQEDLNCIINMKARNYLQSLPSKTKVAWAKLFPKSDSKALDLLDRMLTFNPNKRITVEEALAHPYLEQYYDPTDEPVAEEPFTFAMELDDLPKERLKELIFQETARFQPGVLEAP
T3 sequence (P28482 whole entry, looked up): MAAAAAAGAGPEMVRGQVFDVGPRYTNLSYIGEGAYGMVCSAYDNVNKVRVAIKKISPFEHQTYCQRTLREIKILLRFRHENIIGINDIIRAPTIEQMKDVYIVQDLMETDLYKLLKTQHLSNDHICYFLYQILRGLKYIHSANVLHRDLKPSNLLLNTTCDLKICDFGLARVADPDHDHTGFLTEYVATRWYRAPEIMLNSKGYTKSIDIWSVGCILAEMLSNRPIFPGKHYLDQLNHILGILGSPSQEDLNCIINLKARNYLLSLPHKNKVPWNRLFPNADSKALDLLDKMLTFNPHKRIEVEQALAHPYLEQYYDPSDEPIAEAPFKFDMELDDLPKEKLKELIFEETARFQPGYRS

[24] = molecular target: Transcriptional coactivator YAP1 (Homo sapiens) (UniProt P46937); assay: Activation of YAP phosphorylation in human MP41 cells at 20 uM by Western blot analysis; type: cell-based; details: filed as activator, time <= 24.0 hrs, TDE = time-dependent effect
Transcriptional coactivator YAP1 (Homo sapiens), sequence (P46937 whole entry): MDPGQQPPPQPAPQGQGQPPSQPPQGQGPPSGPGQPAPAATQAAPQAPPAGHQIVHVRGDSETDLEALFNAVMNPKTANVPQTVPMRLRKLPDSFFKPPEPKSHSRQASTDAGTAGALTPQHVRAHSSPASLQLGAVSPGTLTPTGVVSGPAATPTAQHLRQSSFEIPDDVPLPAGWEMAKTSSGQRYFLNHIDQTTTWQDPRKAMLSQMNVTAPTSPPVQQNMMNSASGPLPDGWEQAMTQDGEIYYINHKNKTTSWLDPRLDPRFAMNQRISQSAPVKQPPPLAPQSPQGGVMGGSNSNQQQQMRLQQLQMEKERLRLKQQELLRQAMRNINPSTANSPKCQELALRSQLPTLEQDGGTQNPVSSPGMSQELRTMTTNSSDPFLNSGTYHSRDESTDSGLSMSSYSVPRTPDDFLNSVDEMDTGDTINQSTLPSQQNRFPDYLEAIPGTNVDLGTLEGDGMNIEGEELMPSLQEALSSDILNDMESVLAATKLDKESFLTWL

[25] = molecular target: T3, Mitogen-activated protein kinase; ERK1/ERK2 (Homo sapiens); assay: Inhibition of ERK1/2 phosphorylation in human MP41 cells incubated for 4 hrs by Western blot analysis; type: cell-based; details: dose 3-20 µM
[26] = molecular target: T3, Mitogen-activated protein kinase; ERK1/ERK2 (Homo sapiens); assay: Inhibition of ERK1/2 phosphorylation in human MP41 cells incubated for 24 hrs by Western blot analysis; type: cell-based; details: dose 3-20 µM
[27] = molecular target: Transcriptional coactivator YAP1 (Homo sapiens) (UniProt P46937); assay: Activation of YAP phosphorylation in human MP41 cells incubated for 4 hrs by Western blot analysis; type: cell-based; details: filed as activator, dose 3-20 µM
[28] = molecular target: Transcriptional coactivator YAP1 (Homo sapiens) (UniProt P46937); assay: Activation of YAP phosphorylation in human MP41 cells incubated for 24 hrs by Western blot analysis; type: cell-based; details: filed as activator, dose 3-20 µM
[29] = molecular target: T1, GNAQ/GNA11 (Homo sapiens); assay: Binding affinity to Galphaq/11 (unknown origin) assessed as increase in thermal stability at 10 uM incubated for 1 hr by CETSA; type: protein assay
[30] = molecular target: T4, Type-1 angiotensin II receptor (Homo sapiens) (UniProt P30556); assay: as §1; type: cell-based; details: dose 0.3-100 µM
T4 sequence (whole entry): T2 sequence (P30556 whole entry)

MP41 [31] = assay: Antiproliferative activity against human MP41 cells transfected with SiGNA11 assessed as reduction in cell viability measured after 72 hrs by CCK-8 method; type: functional, cell-based; details: dose <= 10.0 µM

Row | Structure (SMILES) | inhibition [5] [%] | pIC50 [6] | pIC50 [7] | also measured
1 | CC[C@H](C)[C@H](N)C(=O)N1CCn2cc(-c3ccc4c(c3)CCCC4)nc2[C@@H]1CC1CCCCC1.O=C(O)C(F)(F)F |  |  |  | solubility [1]: 9.19 mg/mL; remaining at 168 h [2]: 98.5%; CLint scaled [3]: 0.984 L/h/kg; half-life [4]: 1.77 h
2 | CC(C)C[C@H](N)CN1CCn2cc(-c3ccc4c(c3)CCCC4)nc2[C@@H]1CC1CCCCC1 | 15.7 | 5.12 | 5.51 | Activity (HEK-293T [8]): Toxic; Activity (BEAS-2B [9]): Toxic
3 | N[C@@H](CSSC[C@H](N)C(=O)N1CCn2cc(-c3ccccc3)nc2[C@@H]1CC1CCCCC1)C(=O)N1CCn2cc(-c3ccccc3)nc2[C@@H]1CC1CCCCC1 | 10.9 | 4.99 | 4.84 | Activity (A-375): Active; Activity (SK-MEL-2): Active; Activity (MP41 [10]): Active; Activity 921 [11]: Active; inhibition (MP41 [12]): Active; inhibition (MP41 [13]): Active
4 | CC[C@H](C)[C@H](N)C(=O)N1CCn2cc(-c3cc(Cl)cc(Cl)c3)nc2[C@@H]1CC1CCCCC1 | 12.8 | 4.96 | 5.00 | 
5 | CC[C@H](C)[C@H](N)CN1CCn2cc(-c3ccc4c(c3)CCCC4)nc2[C@@H]1CC1CCCCC1 | 11.9 | 4.76 | 5.32 | 
6 | CN1CCN(CCN2CCn3cc(-c4ccc5c(c4)CCCC5)nc3[C@@H]2CC2CCCCC2)CC1 | 8.9 | 4.96 | 5.19 | 
7 | CN(C)CCN1CCn2cc(-c3ccc4c(c3)CCCC4)nc2[C@@H]1CC1CCCCC1 | 17.1 | 5.03 | 5.31 | 
8 | CC[C@H](C)[C@H](N)C(=O)N1CCn2cc(-c3ccc4c(c3)CCCC4)nc2[C@H]1CC(C)C | 3.6 | 4.86 | 5.08 | 
9 | CC[C@H](C)[C@H](N)C(=O)N1CCn2cc(-c3ccc4c(c3)CCCC4)nc2[C@@H]1CC1CCCCC1 [listing 1 of 2 here] |  | 5.46 | 5.17 | Activity (HEK-293T [14]): Non-Toxic; Activity (BEAS-2B [15]): Non-Toxic; pIC50 [16]: 5.05; pIC50 [17]: 4.64
10 | CC[C@H](C)[C@H](N)C(=O)N1CCn2cc(-c3ccc4c(c3)CCCC4)nc2[C@@H]1CC1CCCCC1 [listing 2 of 2 here] | 18.3 |  |  | Activity (A-375): inactive; Activity (SK-MEL-2): inactive; Activity (MP41 [18]): Active; Activity 921 [19]: Active; inhibition (MP41 [20]): Dose-Dependent Effect; inhibition (MP41 [21]): Dose-Dependent Effect; inhibition (MP41 [22]): Dose-Dependent Effect; inhibition [23]: Tde; Activity [24]: Tde; inhibition [25]: Dose-Dependent Effect; inhibition [26]: Dose-Dependent Effect; Activity [27]: Dose-Dependent Effect; Activity [28]: Dose-Dependent Effect; Activity [29]: Active; inhibition [30]: Dose-Dependent Effect; Activity (MP41 [31]): Dose-Dependent Effect
11 | CC[C@H](C)[C@H](N)C(=O)N1CCn2cc(-c3ccccc3C)nc2[C@@H]1CC1CCCCC1 | 15 | 5.15 | 5.06 | 
12 | N[C@H](CN1CCn2cc(-c3ccc4c(c3)CCCC4)nc2[C@@H]1CC1CCCCC1)C1CCCCC1 | 12.2 | 5.23 | 5.39 | Activity (HEK-293T [8]): Toxic; Activity (BEAS-2B [9]): Toxic
13 | CC[C@H](C)[C@H](N)C(=O)N1CCn2cc(-c3ccc4c(c3)CCCC4)nc2[C@@H]1C1CCCCC1 | 10.4 | 5.08 | 5.03 | 
14 | CC[C@H](C)[C@H](N)C(=O)N1CCn2cc(-c3ccc4c(c3)CCCC4)nc2[C@@H]1CC | 11.5 | 4.52 | 4.65 | 
15 | CC[C@H](C)[C@H](N)C(=O)N1CCn2cc(-c3cccc(Cl)c3OC)nc2[C@@H]1CC1CCCCC1 | 24.2 | 5.10 | 4.95 | 
16 | CN1CCC[C@H]1CN1CCn2cc(-c3ccc4c(c3)CCCC4)nc2[C@@H]1CC1CCCCC1 | 19 | 4.82 | 5.30 | 
17 | CC[C@H](C)[C@H](N)C(=O)N1CCn2cc(-c3ccc(C)cc3)nc2[C@@H]1CC1CCCCC1 | 31.9 | 4.96 | 5.01 | 

The next lines start with results.

Row | inhibition [5] [%] | Structure (SMILES) | pIC50 [6] | pIC50 [7] | also measured
18 | 26.6 | CC[C@H](C)[C@H](N)C(=O)N1CCn2cc(-c3ccccc3)nc2[C@@H]1CC1CCCCC1 | 4.62 | 4.98 | 
19 | 21.9 | CC[C@H](C)[C@H](N)C(=O)N1CCn2cc(-c3cccc(Br)c3)nc2[C@@H]1CC1CCCCC1 | 4.97 | 5.08 | 
20 | 20.8 | CC[C@H](C)[C@H](N)C(=O)N1CCn2cc(-c3cccc(C#N)c3)nc2[C@@H]1CC1CCCCC1 | 5.00 | 4.46 | 
21 | 7.4 | CC[C@H](C)[C@H](N)C(=O)N1CCn2cc(-c3ccc(Cl)c(C)c3)nc2[C@@H]1CC1CCCCC1 | 5.24 | 5.09 | 
22 | 17.8 | CC[C@H](C)[C@H](N)C(=O)N1CCn2cc(-c3cccc(F)c3)nc2[C@@H]1CC1CCCCC1 | 4.70 | 5.30 | 
23 | 8.5 | CC[C@H](C)[C@H](N)C(=O)N1CCn2cc(-c3cccc(C(=O)O)c3)nc2[C@@H]1CC1CCCCC1 | < 4.40 | < 4.40 | 
24 | 10.8 | CC[C@H](C)[C@H](N)C(=O)N1CCn2cc(-c3cccc(N)c3)nc2[C@@H]1CC1CCCCC1 | < 4.40 | < 4.40 | 
25 | 4.1 | CC[C@H](C)[C@H](N)C(=O)N1CCn2cc(-c3cccc(C(=O)OC)c3)nc2[C@@H]1CC1CCCCC1 | 4.79 | 4.60 | 
26 | 19.4 | CC[C@H](C)[C@H](N)C(=O)N1CCn2cc(-c3cccc(I)c3)nc2[C@@H]1CC1CCCCC1 | 4.74 | 5.04 | 
